pIC50: −log10 of the molar value. Active and inactive are the calls of the source. The calls are words filed in the database; no cut-off is given here.
Tests used:
A549 [1] = experiment: Induction of apoptosis in human A549 cells assessed as cell death at 80 uM after 24 hrs by Annexin V-FITC/propidium iodide staining based flow cytometry; format: functional
A549 [2] = experiment: Cytotoxicity against human A549 cells assessed as reduction in cell viability after 72 hrs by MTT assay; format: functional, cell-based; conditions: A549, 72 h
A549 [3] = experiment: Induction of apoptosis in human A549 cells assessed as increase in PARP cleavage at 40 uM after 24 hrs by Western blot analysis; format: functional, cell-based
A549 [4] = experiment: Induction of apoptosis in human A549 cells assessed as necrotic cells up to 80 uM incubated for 24 hrs by Annexin V-FITC/propidium iodide staining based flow cytometry; format: functional, cell-based
A549 [5] = experiment: Induction of apoptosis in human A549 cells assessed as increase in necrotic cells at 40 to 80 uM incubated for 24 hrs by Annexin V-FITC/propidium iodide staining based flow cytometry relative to control; format: functional
A549 [6] = experiment: Induction of apoptosis in human A549 cells assessed as caspase-3 p17/19 active fragment generation at 40 uM after 24 hrs by Western blot analysis; format: functional, cell-based
A549 [7] = experiment: Induction of necrosis in human A549 cells at >20 uM after 24 hrs by Annexin V-FITC/propidium iodide staining based flow cytometry; format: functional, cell-based
A549 [8] = experiment: Cytotoxicity against human A549 cells at 1.56 to 100 uM after 72 hrs by MTT assay; format: functional, cell-based
A549 [9] = experiment: Induction of apoptosis in human A549 cells assessed as caspase-3 p17/19 active fragment generation at 80 uM after 24 hrs by Western blot analysis; format: functional, cell-based
A549 [10] = experiment: Induction of apoptosis in human A549 cells assessed as increase in apoptotic cells at 80 uM incubated for 24 hrs by Annexin V-FITC/propidium iodide staining based flow cytometry; format: functional, cell-based
A549 [11] = experiment: Induction of apoptosis in human A549 cells assessed as increase in PARP cleavage at 80 uM after 24 hrs by Western blot analysis; format: functional, cell-based
A549 [12] = experiment: Induction of apoptosis in human A549 cells assessed as increase in apoptotic cells up to 40 uM incubated for 24 hrs by Annexin V-FITC/propidium iodide staining based flow cytometry; format: functional, cell-based
A549 [13] = experiment: Induction of apoptosis in human A549 cells assessed as cell death up to 40 uM after 24 hrs by Annexin V-FITC/propidium iodide staining based flow cytometry; format: functional
[14] = Solubility of compound in water; format: physicochemical; conditions: buffer
[15] = molecular target: Tumour suppressor p53/oncoprotein Mdm2 (Homo sapiens) (UniProt P04637+Q00987); experiment: Inhibition of MDM2/P53 interaction in human A549 cells assessed as increase in p53 level at 10 to 20 uM after 24 hrs by Western blot analysis; format: cell-based
Chain of Tumour suppressor p53/oncoprotein Mdm2 (Homo sapiens) (P04637 whole entry, looked up): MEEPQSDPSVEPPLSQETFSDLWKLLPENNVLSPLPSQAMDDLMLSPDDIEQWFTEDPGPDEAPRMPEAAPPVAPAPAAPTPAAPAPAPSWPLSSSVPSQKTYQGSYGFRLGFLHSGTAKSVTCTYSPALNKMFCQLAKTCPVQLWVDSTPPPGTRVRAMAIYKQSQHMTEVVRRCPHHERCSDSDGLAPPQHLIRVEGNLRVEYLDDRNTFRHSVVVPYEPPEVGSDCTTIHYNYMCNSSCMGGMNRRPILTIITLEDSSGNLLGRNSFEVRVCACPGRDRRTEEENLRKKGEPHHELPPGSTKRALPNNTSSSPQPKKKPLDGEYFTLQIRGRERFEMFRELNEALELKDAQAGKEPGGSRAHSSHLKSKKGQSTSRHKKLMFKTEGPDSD
Chain of Tumour suppressor p53/oncoprotein Mdm2 (Homo sapiens) (Q00987 whole entry, looked up): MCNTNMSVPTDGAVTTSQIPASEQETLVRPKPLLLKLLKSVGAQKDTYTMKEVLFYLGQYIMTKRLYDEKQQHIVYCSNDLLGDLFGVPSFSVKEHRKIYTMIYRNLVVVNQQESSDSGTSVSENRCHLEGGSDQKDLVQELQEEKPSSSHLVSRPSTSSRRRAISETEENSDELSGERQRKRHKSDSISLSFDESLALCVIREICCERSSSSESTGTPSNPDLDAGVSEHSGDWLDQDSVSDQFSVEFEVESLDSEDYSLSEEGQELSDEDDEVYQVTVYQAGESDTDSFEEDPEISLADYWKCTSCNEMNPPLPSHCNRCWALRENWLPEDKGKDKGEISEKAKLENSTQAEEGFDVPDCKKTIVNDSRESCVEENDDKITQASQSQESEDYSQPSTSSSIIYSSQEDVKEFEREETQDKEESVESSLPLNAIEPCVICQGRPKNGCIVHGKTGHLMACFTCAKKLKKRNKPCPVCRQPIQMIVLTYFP

CCOc1ccc(C2=N[C@H](c3ccc(OCC)cc3)[C@H](c3ccc(OCC)cc3)N2)cc1
Activity (A549 [1]): Active
pIC50 (A549 [2]): 4.88
Activity (A549 [3]): Active
Activity (A549 [4]): Active
Activity (A549 [5]): <=70%
Activity (A549 [6]): Active
Activity (A549 [7]): Active

COc1ccc(C2=N[C@H](c3ccc(O)cc3)[C@H](c3ccc(O)cc3)N2)cc1
Activity (A549 [8]): inactive

Oc1ccc(O)c(C2=N[C@H](c3cc(O)ccc3O)[C@H](c3cc(O)ccc3O)N2)c1
Activity (A549 [8]): inactive

COc1ccc(C2=N[C@H](c3ccc(OC)cc3)[C@H](c3ccc(OC)cc3)N2)cc1
Activity (A549 [9]): inactive
Activity (A549 [10]): Active
pIC50 (A549 [2]): 4.36
Activity (A549 [11]): inactive
Activity (A549 [12]): inactive
Activity (A549 [4]): inactive
Activity (A549 [13]): inactive

Oc1ccc(C2=N[C@H](c3ccc(O)cc3)[C@H](c3ccc(O)cc3)N2)cc1
Activity (A549 [8]): inactive

COc1ccc(C2=N[C@H](c3ccc(OC)c(OC)c3)[C@H](c3ccc(OC)c(OC)c3)N2)cc1OC
pIC50 (A549 [2]): 4.07

Clc1ccc(C2=N[C@H](c3ccc(Cl)cc3)[C@H](c3ccc(Cl)cc3)N2)cc1
Activity (A549 [1]): Active
pIC50 (A549 [2]): 4.69
Activity (A549 [3]): Active
Activity (A549 [4]): Active
Activity (A549 [5]): <=70%
Activity (A549 [6]): Active
Activity (A549 [7]): Active

CCOc1c(OC)cccc1C1=N[C@H](c2cccc(OC)c2OCC)[C@H](c2cccc(OC)c2OCC)N1
pIC50 (A549 [2]): 4.62

Clc1ccc(C2=N[C@H](c3ccc(Cl)cc3Cl)[C@H](c3ccc(Cl)cc3Cl)N2)c(Cl)c1
pIC50 (A549 [2]): 3.78

Oc1ccccc1C1=N[C@H](c2ccccc2O)[C@H](c2ccccc2O)N1
pIC50 (A549 [2]): 3.51

Clc1ccccc1C1=N[C@H](c2ccccc2Cl)[C@H](c2ccccc2Cl)N1
solubility [14]: Insoluble
pIC50 (A549 [2]): 4.97

CCOc1ccc(C2=N[C@H](c3ccc(OCC)c(OC)c3)[C@H](c3ccc(OCC)c(OC)c3)N2)cc1OC
pIC50 (A549 [2]): 4.17

COc1cccc(C2=N[C@H](c3cccc(OC)c3OC)[C@H](c3cccc(OC)c3OC)N2)c1OC
pIC50 (A549 [2]): 4.79
inhibition [15]: inactive

COc1ccc(C2=N[C@H](c3ccc(OC)cc3OC)[C@H](c3ccc(OC)cc3OC)N2)c(OC)c1
Activity (A549 [9]): inactive
Activity (A549 [10]): Active
pIC50 (A549 [2]): 5.03
Activity (A549 [11]): inactive
Activity (A549 [12]): inactive
Activity (A549 [4]): inactive
Activity (A549 [13]): inactive

COc1cc(C2=N[C@H](c3cc(OC)c(OC)c(OC)c3)[C@H](c3cc(OC)c(OC)c(OC)c3)N2)cc(OC)c1OC
Activity (A549 [8]): inactive

COc1cccc(C2=N[C@H](c3cccc(OC)c3)[C@H](c3cccc(OC)c3)N2)c1
pIC50 (A549 [2]): 4.19

COc1ccc(OC)c(C2=N[C@H](c3cc(OC)ccc3OC)[C@H](c3cc(OC)ccc3OC)N2)c1
pIC50 (A549 [2]): 4.67
inhibition [15]: inactive

Fc1ccc(C2=N[C@H](c3ccc(F)cc3)[C@H](c3ccc(F)cc3)N2)cc1
pIC50 (A549 [2]): 3.97

Clc1ccc(C2=N[C@H](c3ccc(Cl)c(Cl)c3)[C@H](c3ccc(Cl)c(Cl)c3)N2)cc1Cl
pIC50 (A549 [2]): 4.86

COc1ccccc1C1=N[C@H](c2ccccc2OC)[C@H](c2ccccc2OC)N1
pIC50 (A549 [2]): 4.56

Brc1ccc(C2=N[C@H](c3ccc(Br)cc3)[C@H](c3ccc(Br)cc3)N2)cc1
solubility [14]: Insoluble
pIC50 (A549 [2]): 5.04
